In US20250134869A1, “Pyrrolo[2,3-d]pyrimidinyl, Pyrrolo[2,3-b]pyrazinyl and Pyrrolo[2,3-d]pyridinyl Acryla-mides” (Pfizer Inc, priority 2021, published 2025):
Where two headings read alike, the source gives them in different places.

Experiments:
[1] = test system: IL-15 induced STAT5 phosphorylation in human whole blood lymphocytes; assay: HWB IL-15 induced STAT5 phosphorylation assay; format: cell-based; conditions: IL-15 stimulated, read-out: HWB-IL15-pSTAT5 IC50
Procedure: HWB IL-15 Induced STAT5 Phosphorylation Assay
After mixing and incubating for 45 minutes at 37° C., 5 μl D-PBS (unstimulated control) or 20× stocks of 5 μl human IL-15 (final concentration is 50 ng/ml) were added, and mixed three times. After incubating 15 minutes at 37° C., 1× Lyse/Fix Buffer (BD Phosflow 5× Lyse/Fix Buffer) was added to all wells at 1000 μl/well, then incubated for 20 minutes at 37° C. and spun 5 mins at 1200 rpm. […] Following incubating at 4° C. over night, all the samples were transferred to 96-well polypropylene U-bottom plate, and checked by flow cytometry gated on total lymphocytes.

[2] = Stability of JAK3 covalent inhibitors in human whole blood; conditions: 1 μM, 37° C.
Source text: Stability of JAK3 Covalent Inhibitors in Rat and Human Whole Blood
Rat blood was collected from 3 male Sprague-Dawley rats (200-250 g, Charles River Laboratories) and pooled for each study. Human blood was collected from one male and one female healthy subjects at the Occupational Health & Wellness Center at Pfizer, Groton, CT and pooled for each study. Both rat and human blood was collected freshly into K2-EDTA tubes and kept on ice. An aliquot of the blood was transferred to microtubes and pre-warmed for 10 min at 37° C. using a heat block. […] An aliquot of the incubation mixture was removed at designated time points during the course of the incubation, mixed with an aliquot of acetonitrile containing an internal standard, vortexed and centrifuged. The resulting supernatants were removed and subjected to LC-MS/MS analyses to determine parent compound concentrations. Peak area ratios of the parent compound vs the internal standard were used to determine the % of parent compound remaining vs incubation time.

[3] = test system: IL-15 induced P-STAT5 in human PBMC; assay: PBMC IL-15 induced P-STAT5; format: cell-based; conditions: read-out: PBMC IL15-pSTAT5 IC50
Procedure: PBMC IL-15 Induced P-STAT5
Frozen human PBMC (200-250 million cells/vial) was thawed at 37° C. The cells were transferred to 10 mL warm medium in a 50-mL conical tube, and centrifuged at 1,200 RPM at room temperature for 5 min. The supernatant was aspirated. […] After adding 47 ml D-PBS (37° C.) to PBMC/FBS suspension, centrifuging at 1,200 RPM at room temperature for 5 min, and aspirating the supernatant, the cells were resuspended in 20 mL warm RPMI medium. Ninety μL of cell suspension were pipetted per well in a 96-well, deep-well, V-bottom plate, and the plate was incubated at 37° C. for 30 min. […] After adding 0.8 mL staining buffer per well, the plates were centrifuged at 1,200 RPM (Beckman GS-6R or Sorvall Legend) at room temperature for 5 min, and again the supernatant was aspirated using a 8-channel or 12-channel manifold. The plate was vortexed, and 0.35 mL 90% methanol/10% H2O (−20° C.) was added per well, and the plate incubated on ice for 20 min. After again adding 0.8 mL staining buffer per well, the plates were centrifuged at 1,200 RPM (Beckman GS-6R or Sorvall Legend) at room temperature for 5 min, and again the supernatant was aspirated using a 8-channel or 12-channel manifold, and then 0.8 mL Staining buffer was added per well. After once again adding 0.8 mL staining buffer per well, the plates were centrifuged at 1,200 RPM (Beckman GS-6R or Sorvall Legend) at room temperature for 5 min, and again the supernatant was aspirated using a 8-channel or 12-channel manifold. […] Samples of 250 μL/well were transferred to a 96-well U-bottom plate, and the FACS analysis was performed gating on total lymphocytes. Samples were analyzed using a BD Calibur™ or BD FACSCanto™ flow cytometer equipped with the BD High Throughput Sampler.

JAK3 enzyme = JAK3 enzyme (Homo sapiens (Human), UniProt P52333); assay: JAK Caliper Enzyme Assay at 4 μM or 1 mM ATP; format: biochemical
[4] = Homo sapiens, PBMC, human PBMC, IL-15 stimulated
[5] = read-out: JAK3 (4 μM ATP) IC50, 4 μM ATP
[6] = read-out: JAK3 (1 mM ATP) IC50, 1 mM ATP

Sequence of JAK3 enzyme (P52333 whole entry, species assumed): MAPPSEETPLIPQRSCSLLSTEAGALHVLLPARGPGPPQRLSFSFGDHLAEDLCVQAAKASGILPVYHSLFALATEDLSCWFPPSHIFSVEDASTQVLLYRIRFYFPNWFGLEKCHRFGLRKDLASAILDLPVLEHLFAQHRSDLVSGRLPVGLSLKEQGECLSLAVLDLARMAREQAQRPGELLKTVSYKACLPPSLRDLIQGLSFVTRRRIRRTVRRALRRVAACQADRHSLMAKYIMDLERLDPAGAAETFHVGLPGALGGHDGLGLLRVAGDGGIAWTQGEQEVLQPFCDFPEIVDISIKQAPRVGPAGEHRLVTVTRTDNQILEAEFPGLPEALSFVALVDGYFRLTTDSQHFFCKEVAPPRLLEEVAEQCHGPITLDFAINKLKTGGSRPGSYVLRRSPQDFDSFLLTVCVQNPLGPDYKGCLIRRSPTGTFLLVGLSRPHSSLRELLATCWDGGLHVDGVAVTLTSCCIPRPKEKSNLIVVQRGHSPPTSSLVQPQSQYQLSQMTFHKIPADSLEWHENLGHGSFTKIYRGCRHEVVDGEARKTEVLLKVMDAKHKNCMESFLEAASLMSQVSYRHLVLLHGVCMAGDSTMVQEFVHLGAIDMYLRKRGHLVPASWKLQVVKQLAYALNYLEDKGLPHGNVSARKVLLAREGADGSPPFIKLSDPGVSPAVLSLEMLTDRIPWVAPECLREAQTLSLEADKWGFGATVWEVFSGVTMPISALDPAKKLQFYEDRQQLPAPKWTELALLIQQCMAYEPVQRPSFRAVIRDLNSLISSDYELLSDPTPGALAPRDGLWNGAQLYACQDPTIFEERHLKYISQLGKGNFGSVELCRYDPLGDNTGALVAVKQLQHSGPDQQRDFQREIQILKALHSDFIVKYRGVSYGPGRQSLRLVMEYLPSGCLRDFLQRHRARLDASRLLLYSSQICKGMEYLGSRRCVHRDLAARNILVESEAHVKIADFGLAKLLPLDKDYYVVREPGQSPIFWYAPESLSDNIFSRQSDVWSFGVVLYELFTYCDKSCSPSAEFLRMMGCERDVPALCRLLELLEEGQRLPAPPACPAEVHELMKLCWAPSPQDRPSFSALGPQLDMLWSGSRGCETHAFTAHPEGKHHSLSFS

IC50 ([1]; Lymphocyte) [µM]	IC50 (JAK3 enzyme; [5]) [µM]	IC50 (JAK3 enzyme; [6]) [µM]	Compound	other results
> 10			C=CC(=O)N1C[C@H](C)C[C@@H](Nc2ncnc3[nH]ccc23)C1 (racemic) [Example 65, Rac-1-((3R,5R)-3-((7H-Pyrrolo[2,3-d]pyrimidin-4-yl)amino)-5-methylpiperidin-1-yl)prop-2-en-1-one]	
0.455			C=CC(=O)N1C[C@H](Nc2ncnc3[nH]ccc23)CC[C@@H]1CO (single isomer, unassigned) [Example 7]	Human blood stability t1/2 [2]: >5.558 h; IC50 [3, 4]: 0.0769 µM
			C=CC(=O)N1CCC[C@@H](Nc2ccnc3[nH]cc(C#N)c23)C1 [Example 2, (R)-4-((1-acryloylpiperidin-3-yl)amino)-1H-pyrrolo[2,3-b]pyridine-3-carbonitrile]	Human blood stability t1/2: >6 h; IC50 [3]: 0.0304 µM; IC50 [1]: 0.22 µM; IC50 (JAK3 enzyme; read-out: JAK3 (4 μM ATP) IC50): 0.0002 µM; IC50 (JAK3 enzyme; read-out: JAK3 (1 mM ATP) IC50): 0.0189 µM
			C=CC(=O)N1CCC[C@@H](Nc2ncnc3[nH]cc(-c4ccc(C(=O)NC5CC5)c(Cl)c4)c23)C1 [Example 31, 4-(4-{[(3R)-1-acryloylpiperidin-3-yl]amino}-7H-pyrrolo[2,3-d]pyrimidin-5-yl)-2-chloro-N-cyclopropylbenzamide]	Human blood stability t1/2: >6 h; IC50 (JAK3 enzyme; read-out: JAK3 (4 μM ATP) IC50): 0.0241 µM; IC50 (JAK3 enzyme; read-out: JAK3 (1 mM ATP) IC50): 1.86 µM
	2.48	> 10	C/C=C/C(=O)N1CCC[C@@H](Nc2ncnc3[nH]ccc23)C1 [Example 105, (2E)-1-[(3R)-3-(7H-pyrrolo[2,3-d]pyrimidin-4-ylamino)piperidin-1-yl]but-2-en-1-one]	Human blood stability t1/2 [2]: >6 h
> 10			C=CC(=O)N1C[C@@H](Nc2ncnc3[nH]ccc23)CC[C@H]1CO [Example 117, 1-[(2S,5S)-2-(Hydroxymethyl)-5-(7H-pyrrolo[2,3-d]pyrimidin-4-ylamino)piperidin-1-yl]prop-2-en-1-one]	IC50 [3, 4]: > 10 µM
			C=CC(=O)N1CC(Nc2ncnc3[nH]ccc23)CCC1CO (stereo not shown) [Example 118, 1-[2-(Hydroxymethyl)-5-(7H-pyrrolo[2,3-d]pyrimidin-4-ylamino)piperidin-1-yl]prop-2-en-1-one]	Human blood stability t1/2 [2]: >5.558 h; IC50 ([3]; human PBMC, IL-15 stimulated): > 10 µM
			C=CC(=O)N1C[C@H](Nc2ncnc3[nH]ccc23)CC[C@@H]1CO [Example 161, 1-[(2R,5R)-2-(Hydroxymethyl)-5-(7H-pyrrolo[2,3-d]pyrimidin-4-ylamino)piperidin-1-y]prop-2-en-1-one]	Human blood stability t1/2 [2]: >5.392 h; IC50 ([3]; human PBMC, IL-15 stimulated): 0.0769 µM; IC50 [1]: 0.455 µM
> 10	0.0023	0.309	C=CC(=O)N1CC(O)C(Nc2cnc3[nH]cc(C(=O)NC(C)C)c3n2)C1 (stereo not shown) [Example 179, 2-[(1-acryloyl-4-hydroxypyrrolidin-3-yl)amino]-N-(propan-2-yl)-5H-pyrrolo[2,3-b]pyrazine-7-carboxamide]	IC50 ([3]; human PBMC, IL-15 stimulated): > 10 µM
> 10	0.0015	0.21	C=CC(=O)N[C@H]1C[C@@H](Nc2cnc3[nH]cc(C(=O)NC(C)C)c3n2)C1 [Example 184, 2-{[cis-3-(acryloylamino)cyclobutyl]amino}-N-(propan-2-yl)-5H-pyrrolo[2,3-b]pyrazine-7-carboxamide]	
> 10	0.0011	0.198	C=CC(=O)N1C[C@@H]2C(Nc3cnc4[nH]cc(C(=O)NC(C)C)c4n3)[C@@H]2C1 (stereo partly drawn) [Example 189, 2-{[(1R,5S,6s)-3-acryloyl-3-azabicyclo[3.1.0]hex-6-yl]amino}-N-(propan-2-yl)-5H-pyrrolo[2,3-b]pyrazine-7-carboxamide]	
> 10	0.0012	0.101	C=CC(=O)N1CCC(Nc2cnc3[nH]cc(-c4ccc(C)nc4)c3n2)CC1 [Example 199, 1-(4-{[7-(6-methylpyridin-3-yl)-5H-pyrrolo[2,3-b]pyrazin-2-yl]amino}piperidin-1-yl)prop-2-en-1-one]	
> 10	0.0001	0.0196	C=CC(=O)N1CCC(Nc2cnc3[nH]cc(-c4cncc(C#N)c4)c3n2)CC1 [Example 206, 5-{2-[(1-acryloylpiperidin-4-yl)amino]-5H-pyrrolo[2,3-b]pyrazin-7-yl}pyridine-3-carbonitrile]	
> 10	0.0008	0.0694	C=CC(=O)N1CCC(Oc2cnc3[nH]cc(-c4cncc(F)c4)c3n2)CC1 [Example 213, 1-(4-{[7-(5-fluoropyridin-3-yl)-5H-pyrrolo[2,3-b]pyrazin-2-yl]oxy}piperidin-1-yl)prop-2-en-1-one]	
> 10	0.0007	0.0424	C=CC(=O)N1CCC(Oc2cnc3[nH]cc(-c4cccnc4F)c3n2)CC1 [Example 217, 1-(4-{[7-(2-fluoropyridin-3-yl)-5H-pyrrolo[2,3-b]pyrazin-2-yl]oxy}piperidin-1-yl)prop-2-en-1-one]	
> 10	0.0008	0.0704	C=CC(=O)N1CCC(Oc2cnc3[nH]cc(-c4ccnc(C)c4)c3n2)CC1 [Example 220, 1-(4-{[7-(2-methylpyridin-4-yl)-5H-pyrrolo[2,3-b]pyrazin-2-yl]oxy}piperidin-1-yl)prop-2-en-1-one]	
0.532	0.0002	0.0206	C=CC(=O)N1CCC(Nc2cnc3[nH]cc(C(=O)N[C@@H]4C[C@H]4C(F)(F)F)c3n2)CC1 [Example 233, 2-[(1-acryloylpiperidin-4-yl)amino]-N-[(1R,2R)-2-(trifluoromethyl)cyclopropyl]-5H-pyrrolo[2,3-b]pyrazine-7-carboxamide]	IC50 ([3]; human PBMC, IL-15 stimulated): 0.213 µM
> 10			C=CC(=O)N1CCC(Nc2cnc3[nH]cc(C(=O)NCCCCCCCCC#N)c3n2)CC1 [Example 260, 2-[(1-acryloylpiperidin-4-yl)amino]-N-(8-cyanooctyl)-5H-pyrrolo[2,3-b]pyrazine-7-carboxamide]	
> 10			C=CC(=O)N1CCC(Nc2cnc3[nH]cc(C(=O)N[C@H]4CCC[C@H](CC#N)C4)c3n2)CC1 [Example 262, 2-[(1-acryloylpiperidin-4-yl)amino]-N-[(1S,3S)-3-(cyanomethyl)cyclohexyl]-5H-pyrrolo[2,3-b]pyrazine-7-carboxamide]	
> 10	0.0004	0.115	C=CC(=O)N1CCC(Oc2cnc3[nH]cc(C(=O)NC(C)(C)C)c3n2)CC1 [Example 338, 2-((1-Acryloylpiperidin-4-yl)oxy)-N-(tert-butyl)-5H-pyrrolo[2,3-b]pyrazine-7-carboxamide]	

Compound	IC50 ([1]; Lymphocyte) [µM]	IC50 (JAK3 enzyme; [5]) [µM]	IC50 (JAK3 enzyme; [6]) [µM]	other results
C=CC(=O)N1CC2CCN(c3cnc4[nH]cc(C(=O)NC(C)C)c4n3)C2C1 (stereo not shown) [Example 178, 2-(5-acryloylhexahydropyrrolo[3,4-b]pyrrol-1(2H)-yl)-N-(propan-2-yl)-5H-pyrrolo[2,3-b]pyrazine-7-carboxamide]	2.56	0.0011	0.102	IC50 [3, 4]: 0.208 µM
C=CC(=O)N1CCC(Oc2cnc3[nH]cc(-c4cnn(C)c4)c3n2)CC1 [Example 218, 1-(4-{[7-(1-methyl-1H-pyrazol-4-yl)-5H-pyrrolo[2,3-b]pyrazin-2-yl]oxy}piperidin-1-yl)prop-2-en-1-one]	6.19	0.0006	0.0811	IC50 [3, 4]: 0.345 µM
